Experiment [1] relates to human iPS cell strain 201B2 (chromosome 12 trisomy). Put plainly: Evaluation of calreticulin expression inducing activity of synthetic peptides (immunofluorescence antibody assay), genomically unstable iPS cells. The class given is cell-based. The conditions noted are these: peptide 10 μM in mTeSR 1 medium, 5 days, medium replaced every day; anti-calreticulin antibody, confocal laser microscope. The source says:
(§1) In the following Examples, iPS cells were used as an example of pluripotent stem cells. Specifically, cells used for tests were a genomically stable (specifically without a chromosome aberration) human iPS cell strain (clone: 201B7, hereinafter also merely referred to as 201B7) and a human iPS cell strain (clone: 201B2 hereinafter also merely referred to as 201B2) containing genomically unstable (specifically, chromosome 12 is triploid (trisomy)) cells. Both 201B7 and 201B2 are clones of iPS cells established from the same human fibroblasts (source: Takahashi K et al., Cell, 131, 861-872 (2007)). The iPS cells were provided by the Center for iPS Cell Research and Application, Kyoto University. […]
(§2) A primary antibody diluted solution prepared by adjusting a primary antibody, an anti-calreticulin monoclonal [FMC75] antibody (murine, available from Abeam, Cat No. ab22683, Lot No. GR56669-4), to a final concentration of 4×10^−3 mg/mL in 1% BSA/PBS (−) (PBS (−) containing 1% BSA) was added to the culture vessel of the iPS cells, and the mixture was left to stand overnight at 4° C. or 2 hours at room temperature. […] Thereafter, mounting was carried out with a DAPI (4′,6-diamidino-2-phenylindole)-containing mounting medium (available from Life Technologies) and a cover glass and fluorescence was observed under a confocal laser microscope. […]

The subject of experiment [2] is human iPS cell strain 201B7. Put plainly: Evaluation of calreticulin expression inducing activity of synthetic peptides (immunofluorescence antibody assay), genomically stable iPS cells. The format is cell-based. Particulars: peptide 10 μM in mTeSR 1 medium, 5 days, medium replaced every day; anti-calreticulin antibody, confocal laser microscope.
Text: as §1, §2

Results on one sequence are retold here after US10067145B2, “Method for removing genomically unstable IPS cells and synthetic peptide used therefor” (TOAGOSEI CO., LTD., priority 2013, dated 2018).

No end group written: not given here.

As for “KKRTLRKNDRKKR GG CRAKAGDPC (KKRTLRKNDRKKRGGCRAKAGDPC-NH2; cysteine pairing not given here) [sample 1, linear synthetic calreticulin expression inducing peptide, 24 residues]”, the “expression level of calreticulin in 201B2 (fluorescence of the label detecting calreticulin) compared to cells without addition of peptides” value in experiment [1] is on record as “significantly increased”. Moreover, the “expression level of calreticulin in 201B7 (fluorescence of the label detecting calreticulin) compared to cells without addition of peptides” value in experiment [2] is reported as “almost no increase”.
